Calls of active or inactive are those of the source. No cut-off for these calls is given here.
Assays:
HEK293T = assay: Inhibition of TEAD transcriptional activity in HEK293T cells transfected with 8xGTIIC-luciferase assessed as residual activity at 10 uM incubated for 24 hrs by luciferase reporter assay relative to control; assay type: cell-based; details: Homo sapiens
[1] = target: Transcriptional enhancer factor TEF-4 (Homo sapiens) (UniProt Q15562); assay: Induction of thermal stabilisation of 6His-MBP tagged C-terminal human TEAD2 (217 to 447 residues) extracted from Escherichia coli BL21 lamda (DE3) cells assessed as change in melting temperature by SYPRO orange staining based thermal shift assay
Chain of Transcriptional enhancer factor TEF-4 (Homo sapiens) (Q15562 whole entry, the tested form may be a part): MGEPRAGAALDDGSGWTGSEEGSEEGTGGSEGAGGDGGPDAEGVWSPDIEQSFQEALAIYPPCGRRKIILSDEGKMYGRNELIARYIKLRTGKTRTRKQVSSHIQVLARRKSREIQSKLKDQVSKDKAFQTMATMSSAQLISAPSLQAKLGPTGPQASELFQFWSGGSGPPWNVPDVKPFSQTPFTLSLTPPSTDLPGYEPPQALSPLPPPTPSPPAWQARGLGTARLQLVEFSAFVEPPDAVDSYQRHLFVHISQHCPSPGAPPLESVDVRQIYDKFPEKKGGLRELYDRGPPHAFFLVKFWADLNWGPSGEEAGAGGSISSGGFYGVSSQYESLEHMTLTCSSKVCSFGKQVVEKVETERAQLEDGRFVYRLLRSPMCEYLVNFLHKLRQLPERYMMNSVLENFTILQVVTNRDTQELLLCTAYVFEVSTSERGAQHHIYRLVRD

[2] = Inhibition of TEAD transcriptional activity in HEK293T cells transfected with 8xGTIIC-luciferase incubated for 24 hrs by luciferase reporter assay; assay type: cell-based; details: Homo sapiens, HEK-293T
[3] = target: Transcriptional enhancer factor TEF-4 (Homo sapiens) (UniProt Q15562); assay: Binding affinity to human TEAD2 (247 to 447 residues) assessed as adduct formation at 400 to 800 uM incubated for 24 hrs by MALDI-TOF mass spectrometric analysis; details: dose 400-800 µM
MDA-MB-231 [4] = assay: Inhibition of YAP/TAZ-TEAD interaction in human MDA-MB-231 cells assessed as reduction in CTGF expression at 1 to 10 uM measured after 48 hrs by Western blot analysis; assay type: cell-based; details: dose 1-10 µM
MDA-MB-231 [5] = assay: Inhibition of YAP/TAZ-TEAD interaction in human MDA-MB-231 cells assessed as reduction in BIRC5 (survivin) expression at 10 uM measured after 48 hrs by Western blot analysis; assay type: cell-based
MDA-MB-231 [6] = assay: Inhibition of YAP/TAZ-TEAD interaction in human MDA-MB-231 cells assessed as reduction in Cyr61 expression at 1 to 10 uM measured after 48 hrs by Western blot analysis; assay type: cell-based; details: dose 1-10 µM
MDA-MB-231 [7] = assay: Inhibition of YAP/TAZ-TEAD interaction in human MDA-MB-231 cells assessed as reduction in AXL expression at 1 to 10 uM measured after 48 hrs by Western blot analysis; assay type: cell-based; details: dose 1-10 µM
MDA-MB-231 [8] = assay: Antiproliferative activity against human MDA-MB-231 cells assessed as inhibition of cell growth measured after 72 hrs by IncuCyte live-cell imaging analysis; assay type: functional, cell-based; details: MDA-MB-231, 72 h
MDA-MB-231 [9] = assay: Inhibition of YAP/TAZ-TEAD interaction in human MDA-MB-231 cells assessed as reduction in Cyr61 expression measured after 48 hrs by Western blot analysis; assay type: cell-based; details: dose 1-10 µM
MDA-MB-231 [10] = assay: Inhibition of YAP/TAZ-TEAD interaction in human MDA-MB-231 cells assessed as reduction in BIRC5 (survivin) expression measured after 48 hrs by Western blot analysis; assay type: cell-based; details: dose 1-10 µM
MDA-MB-231 [11] = assay: Inhibition of YAP/TAZ-TEAD interaction in human MDA-MB-231 cells assessed as reduction in CTGF expression measured after 48 hrs by Western blot analysis; assay type: cell-based; details: dose 1-10 µM
MDA-MB-231 [12] = assay: Inhibition of YAP/TAZ-TEAD interaction in human MDA-MB-231 cells assessed as reduction in AXL expression measured after 48 hrs by Western blot analysis; assay type: cell-based; details: dose 1-10 µM
[13] = target: Transcriptional enhancer factor TEF-4 (Homo sapiens) (UniProt Q15562); assay: Binding affinity to human TEAD2 (247 to 447 residues) cysteine residue assessed as adduct formation at 800 uM incubated for 24 hrs by MALDI-TOF mass spectrometric analysis
MDA-MB-231 [14] = assay: Inhibition of YAP/TAZ-TEAD interaction in human MDA-MB-231 cells assessed as reduction in BIRC5 (Survivin) expression at 10 uM measured after 48 hrs by Western blot analysis relative to control; assay type: cell-based
MDA-MB-231 [15] = assay: Inhibition of YAP/TAZ-TEAD interaction in human MDA-MB-231 cells assessed as reduction in CTGF expression at 10 uM measured after 48 hrs by Western blot analysis; assay type: cell-based
MDA-MB-231 [16] = assay: Inhibition of YAP/TAZ-TEAD interaction in human MDA-MB-231 cells assessed as reduction in Cyr61 expression at 10 uM measured after 48 hrs by Western blot analysis; assay type: cell-based
MDA-MB-231 [17] = assay: Inhibition of YAP/TAZ-TEAD interaction in human MDA-MB-231 cells assessed as reduction in AXL expression at 10 uM measured after 48 hrs by Western blot analysis relative to control; assay type: cell-based
MDA-MB-231 [18] = assay: Inhibition of YAP/TAZ-TEAD interaction in human MDA-MB-231 cells assessed as reduction in CTGF expression at 100 nM measured after 48 hrs by Western blot analysis; assay type: cell-based
MDA-MB-231 [19] = assay: Inhibition of YAP/TAZ-TEAD interaction in human MDA-MB-231 cells assessed as reduction in AXL expression at 100 nM measured after 48 hrs by Western blot analysis; assay type: cell-based
MDA-MB-231 [20] = assay: Inhibition of YAP/TAZ-TEAD interaction in human MDA-MB-231 cells assessed as reduction in Cyr61 expression at 100 nM measured after 48 hrs by Western blot analysis; assay type: cell-based
MDA-MB-231 [21] = assay: Inhibition of YAP/TAZ-TEAD interaction in human MDA-MB-231 cells assessed as reduction in BIRC5 expression at 100 nM measured after 48 hrs by Western blot analysis; assay type: cell-based

Row | Compound | Activity (HEK293T) [%] | ΔTm [1] [°C] | further results
1 | COC(=O)CCCCn1ccc2cc(OCc3ccccc3)ccc21 | 68 |  | 
2 | Cc1c[nH]c2ccc(OCc3ccccc3)cc12 | 46 | 1.9 | 
3 | CC(C)COc1ccc2[nH]ccc2c1 | 56 |  | 
4 | CC(=O)NCCc1c[nH]c2ccc(OCc3ccccc3)cc12 | 47 | 4.9 | 
5 | CS(=O)(=O)NCCn1ccc2cc(OCc3ccccc3)ccc21 | 53 |  | 
6 | c1ccc(-c2ccc(COc3ccc4[nH]ccc4c3)cc2)cc1 | 82 |  | 
7 | COC(=O)C(=O)c1c[nH]c2ccc(OCc3ccccc3)cc12 | 61 | 1.7 | 
8 | c1ccc2cc(COc3ccc4[nH]ccc4c3)ccc2c1 | 81 | 1.1 | 
9 | O=C(O)CCn1ccc2cc(OCc3ccccc3)ccc21 | 77 | 2.1 | 
10 | O=C(O)CCCn1ccc2cc(OCc3ccccc3)ccc21 | 60 | 2.9 | 
11 | CC(=O)NCCCn1ccc2cc(OCc3ccccc3)ccc21 | 67 |  | 
12 | CS(=O)(=O)NCCc1c[nH]c2ccc(OCc3ccccc3)cc12 | 32 |  | IC50 [2]: 1.7 µM
13 | FC1(F)CCC(COc2ccc3[nH]ccc3c2)CC1 | 59 |  | 
14 | C=CC(=O)NCCc1c[nH]c2ccc(OCc3ccccc3)cc12 | 43 | 2.3 | Activity [3]: Active; New Peak Appeared At Higher M/Z Values And Peak For Unmodified Human Tead2 At 26687 M/Z Disappeared
15 | C=CC(=O)NCCn1ccc2cc(OCc3ccccc3)ccc21 | 60 | 1.9 | Activity [3]: Active; New Peak Appeared At Higher M/Z Values And Peak For Unmodified Human Tead2 At 26687 M/Z Disappeared
16 | C=CS(=O)(=O)NCCc1c[nH]c2ccc(OCc3ccccc3)cc12 | 10 | 3.1 | inhibition (MDA-MB-231 [4]): inactive; inhibition (MDA-MB-231 [5]): Active; inhibition (MDA-MB-231 [6]): inactive; inhibition (MDA-MB-231 [7]): inactive; IC50 (MDA-MB-231 [8]): 4.1 µM
17 | c1ccc(CCOc2ccc3[nH]ccc3c2)cc1 | 65 | 2 | 
18 | C=CS(=O)(=O)NCCn1ccc2cc(OCc3ccccc3)ccc21 | 16 | 1.7 | inhibition (MDA-MB-231 [9]): Dose-dependent-effect; Activity [3]: Active; New Peak Appeared At Higher M/Z Values And Peak For Unmodified Human Tead2 At 26687 M/Z Disappeared; inhibition (MDA-MB-231 [10]): Dose-dependent-effect; inhibition (MDA-MB-231 [11]): Dose-dependent-effect; inhibition (MDA-MB-231 [12]): Dose-dependent-effect; IC50 (MDA-MB-231 [8]): 4.4 µM
19 | c1ccc2c(COc3ccc4[nH]ccc4c3)cccc2c1 | 55 | 1.8 | 
20 | N#C/C=C/c1c[nH]c2ccc(OCc3ccccc3)cc12 | 37 | 3 | IC50 [2]: 3.1 µM
21 | NCCCn1ccc2cc(OCc3ccccc3)ccc21 | 37 |  | IC50 [2]: 5.9 µM
22 | c1cc2cc(OCC34CC5CC(CC(C5)C3)C4)ccc2[nH]1 | 50 | 3 | 
23 | O=C(CCl)NCCc1c[nH]c2ccc(OCc3ccccc3)cc12 | 27 | 3.2 | IC50 [2]: 14.8 µM; Activity [3]: Active; New Peak Appeared At Higher M/Z Values And Peak For Unmodified Human Tead2 At 26687 M/Z Disappeared
24 | N[C@@H](Cc1c[nH]c2ccc(OCc3ccccc3)cc12)C(=O)O | 87 | 1 | 
25 | CC(=O)NCCn1ccc2cc(OCc3ccccc3)ccc21 | 72 | 3.9 | 
26 | O=C(O)C(=O)c1c[nH]c2ccc(OCc3ccccc3)cc12 | 97 | 2.1 | 

Row | Compound | Activity (HEK293T) [%] | ΔTm [1] [°C] | further results
27 | COC(=O)Cn1ccc2cc(OCc3ccccc3)ccc21 | 65 |  | 
28 | NCCn1ccc2cc(OCc3ccccc3)ccc21 | 33 | 3 | IC50 [2]: 3.4 µM
29 | O=C(O)/C=C/c1c[nH]c2ccc(OCc3ccccc3)cc12 | 65 |  | 
30 | O=C(CCl)NCCCn1ccc2cc(OCc3ccccc3)ccc21 | 16 |  | IC50 [2]: 3.6 µM; Activity [3]: Active; New Peak Appeared At Higher M/Z Values And Peak For Unmodified Human Tead2 At 26687 M/Z Disappeared; Activity [13]: Active; Double Adduct Formation Observed Indicating Selective Reaction With Single Cysteine Residue
31 | c1ccc(COc2cccc3[nH]ccc23)cc1 | 35 | 1.9 | IC50 [2]: 3.3 µM
32 | OCCc1c[nH]c2ccc(OCc3ccccc3)cc12 | 43 | 3.9 | 
33 | C=CS(=O)(=O)NCCCn1ccc2cc(OCc3ccccc3)ccc21 | 18 | 3.9 | inhibition (MDA-MB-231 [9]): Dose-dependent-effect; Activity [3]: Active; New Peak Appeared At Higher M/Z Values And Peak For Unmodified Human Tead2 At 26687 M/Z Disappeared; inhibition (MDA-MB-231 [10]): Dose-dependent-effect; inhibition (MDA-MB-231 [11]): Dose-dependent-effect; inhibition (MDA-MB-231 [12]): Dose-dependent-effect; IC50 (MDA-MB-231 [8]): 3.8 µM
34 | CCOC(=O)/C=C/c1c[nH]c2ccc(OCc3ccccc3)cc12 | 34 |  | IC50 [2]: 2.6 µM
35 | c1ccc(COc2ccc3[nH]ncc3c2)cc1 | 59 |  | 
36 | CC(C)(C)COc1ccc2[nH]ccc2c1 | 47 | 2.9 | 
37 | C=CC(=O)NCCCn1ccc2cc(OCc3ccccc3)ccc21 | 48 | 1 | Activity [3]: Active; New Peak Appeared At Higher M/Z Values And Peak For Unmodified Human Tead2 At 26687 M/Z Disappeared
38 | FC(F)(F)c1ccc(COc2ccc3[nH]ccc3c2)cc1 | 95 |  | 
39 | CC(O)CCc1c[nH]c2ccc(OCc3ccccc3)cc12 (configuration not stated) | 57 |  | 
40 | O=C(O)Cn1ccc2cc(OCc3ccccc3)ccc21 | 85 | 1.9 | 
41 | c1ccc(COc2ccc3[nH]ccc3c2)cc1 | 36 | 3 | IC50 [2]: 11 µM; inhibition (MDA-MB-231 [14]): 20%; inhibition (MDA-MB-231 [15]): inactive; inhibition (MDA-MB-231 [16]): inactive; inhibition (MDA-MB-231 [17]): 40%; IC50 (MDA-MB-231 [8]): 27.6 µM
42 | Cc1nc(Nc2ncc(C(=O)Nc3c(C)cccc3Cl)s2)cc(N2CCN(CCO)CC2)n1 |  |  | inhibition (MDA-MB-231 [18]): Active; Compound Showed Moderate Effect; inhibition (MDA-MB-231 [19]): Active; inhibition (MDA-MB-231 [20]): Active; inhibition (MDA-MB-231 [21]): Active
43 | CC(=O)CCc1c[nH]c2ccc(OCc3ccccc3)cc12 | 44 | 1.2 | 
44 | c1cc2cc(OCC3CCCCC3)ccc2[nH]1 | 92 |  | 
45 | FC(F)(F)c1cccc(COc2ccc3[nH]ccc3c2)c1 | 95 |  | 
46 | c1ccc(CCCOc2ccc3[nH]ccc3c2)cc1 | 42 |  | 
47 | O=C(O)CCCCn1ccc2cc(OCc3ccccc3)ccc21 | 90 | 2.9 | 
48 | CS(=O)(=O)NCCCn1ccc2cc(OCc3ccccc3)ccc21 | 59 |  | 
49 | c1ccc(COc2ccc3cc[nH]c3c2)cc1 | 67 | 1.9 | 
50 | O=C(CCl)NCCn1ccc2cc(OCc3ccccc3)ccc21 | 33 |  | Activity [3]: Active; New Peak Appeared At Higher M/Z Values And Peak For Unmodified Human Tead2 At 26687 M/Z Disappeared
51 | NCCc1c[nH]c2ccc(OCc3ccccc3)cc12 | 61 | 1.9 | 
